Experimental findings from BindingDB's records for doi:10.1021/jm000956k (Glaxowellcome, 2001) are described below.

Some results are limits rather than exact numbers.

The target of assay [1] is 5-hydroxytryptamine receptor 2C (Cavia porcellus). As to the kind of experiment: Binding affinity against guinea pig cortex 5-HT2C receptor in the presence of [3H]mesulergine.
Assay [2] addresses 5-hydroxytryptamine receptor 2A (Oryctolagus cuniculus). Nature of the assay: Binding affinity against rabbit aorta 5-HT2A receptor.
For assay [3], the target named is 5-hydroxytryptamine receptor 1D (Bos taurus). Nature of the assay: Binding affinity against calf caudate 5-hydroxytryptamine 1D receptor.

What is called IC50 is the concentration that gives 50% inhibition. Regarding `CN(C)[C@H]1C[C@H](c2c[nH]c3ccc(CC4COC(=O)N4)cc32)C1` (stereo partly drawn), the values for the IC50 in assay [1], in assay [2] and in assay [3] were above 10 µM, above 10 µM and 0.089 µM, respectively.
